# Source: PubChem BioAssay AID1259407 (Chemical Carcinogenesis Research Information System (CCRIS), 2018)
# Activity calls are given as the source filed them. The rule behind the calls is not given here.
# Tested on: CCRIS mutagenicity, Ames/micronucleus/aberration tests
# Assay: CCRIS mutagenicity studies
compound,measurement,setting,value
COc1cc(CNC(=O)CCCC/C=C/C(C)C)ccc1O,mutagenic call,"End Point: IN VITRO CHROMOSOMAL ABERRATIONS, Test System: HUMAN LYMPHOCYTES, Metabolic Activation: NONE",inactive; negative
same,mutagenic call,"End Point: IN VITRO CHROMOSOMAL ABERRATIONS, Test System: HUMAN LYMPHOCYTES, Metabolic Activation: RAT LIVER S-9, AROCLOR 1254",inactive; negative
same,mutagenic call,"End Point: IN VITRO CHROMOSOMAL ABERRATIONS, Test System: HUMAN LYMPHOCYTES, Metabolic Activation: S-9",inactive; negative
same,mutagenic call,"End Point: IN VITRO CHROMOSOMAL ABERRATIONS, Test System: HUMAN PERIPHERAL BLOOD LYMPHOCYTES, Metabolic Activation: NONE",inactive; negative
same,mutagenic call,"End Point: IN VITRO CHROMOSOMAL ABERRATIONS, Test System: HUMAN PERIPHERAL BLOOD LYMPHOCYTES, Metabolic Activation: RAT, LIVER, S-9, AROCLOR 1254",inactive; negative
same,mutagenic call,"End Point: IN VIVO MICRONUCLEUS, Test System: BONE MARROW ERYTHROCYTES, Species: MOUSE, Strain/Sex: CD-1/FEMALE, Route: GAVAGE",inactive; negative
same,mutagenic call,"End Point: IN VIVO MICRONUCLEUS, Test System: BONE MARROW ERYTHROCYTES, Species: MOUSE, Strain/Sex: CD-1/MALE, Route: GAVAGE",inactive; negative
same,mutagenic call,"End Point: IN VIVO MICRONUCLEUS, Test System: BONE MARROW POLYCHROMATIC ERYTHROCYTES, Species: MOUSE, Strain/Sex: CD-1/MALE, FEMALE, Route: GAVAGE",inactive; negative
same,mutagenic call,"Test System: AMES SALMONELLA TYPHIMURIUM, Strain/Indicator: TA97, Metabolic Activation: NONE, Method: PREINCUBATION (20 MIN)",inactive; negative
same,mutagenic call,"Test System: AMES SALMONELLA TYPHIMURIUM, Strain/Indicator: TA97, Metabolic Activation: S-9, Method: PREINCUBATION (20 MIN)",inactive; negative
same,mutagenic call,"Test System: AMES SALMONELLA TYPHIMURIUM, Strain/Indicator: TA98, Metabolic Activation: HAMSTER, LIVER, S-9, AROCLOR 1254, Method: STANDARD PLATE",inactive; negative
same,mutagenic call,"Test System: AMES SALMONELLA TYPHIMURIUM, Strain/Indicator: TA98, Metabolic Activation: NONE, Method: DIRECT PLATE",inactive; negative
same,mutagenic call,"Test System: AMES SALMONELLA TYPHIMURIUM, Strain/Indicator: TA98, Metabolic Activation: NONE, Method: PREINCUBATION",inactive; negative
same,mutagenic call,"Test System: AMES SALMONELLA TYPHIMURIUM, Strain/Indicator: TA98, Metabolic Activation: NONE, Method: PREINCUBATION (20 MIN)",inactive; negative
same,mutagenic call,"Test System: AMES SALMONELLA TYPHIMURIUM, Strain/Indicator: TA98, Metabolic Activation: RAT LIVER S-9, AROCLOR 1254, Method: PREINCUBATION",inactive; negative
same,mutagenic call,"Test System: AMES SALMONELLA TYPHIMURIUM, Strain/Indicator: TA98, Metabolic Activation: RAT LIVER S-9, AROCLOR 1254, Method: STANDARD PLATE",inactive; negative
same,mutagenic call,"Test System: AMES SALMONELLA TYPHIMURIUM, Strain/Indicator: TA98, Metabolic Activation: RAT, LIVER, S-9, AROCLOR 1254, Method: DIRECT PLATE",inactive; negative
same,mutagenic call,"Test System: AMES SALMONELLA TYPHIMURIUM, Strain/Indicator: TA98, Metabolic Activation: RAT, LIVER, S-9, AROCLOR 1254, Method: PREINCUBATION",inactive; negative
same,mutagenic call,"Test System: AMES SALMONELLA TYPHIMURIUM, Strain/Indicator: TA98, Metabolic Activation: RAT, LIVER, S-9, AROCLOR, Method: STANDARD PLATE",active; positive
same,mutagenic call,"Test System: AMES SALMONELLA TYPHIMURIUM, Strain/Indicator: TA98, Metabolic Activation: S-9, Method: PREINCUBATION (20 MIN)",inactive; negative
same,mutagenic call,"Test System: AMES SALMONELLA TYPHIMURIUM, Strain/Indicator: TA100, Metabolic Activation: HAMSTER, LIVER, S-9, AROCLOR 1254, Method: STANDARD PLATE",inactive; negative
same,mutagenic call,"Test System: AMES SALMONELLA TYPHIMURIUM, Strain/Indicator: TA100, Metabolic Activation: NONE, Method: DIRECT PLATE",inactive; negative
same,mutagenic call,"Test System: AMES SALMONELLA TYPHIMURIUM, Strain/Indicator: TA100, Metabolic Activation: NONE, Method: PREINCUBATION",inactive; negative
same,mutagenic call,"Test System: AMES SALMONELLA TYPHIMURIUM, Strain/Indicator: TA100, Metabolic Activation: NONE, Method: STANDARD PLATE",inactive; negative
same,mutagenic call,"Test System: AMES SALMONELLA TYPHIMURIUM, Strain/Indicator: TA100, Metabolic Activation: RAT LIVER S-9, AROCLOR 1254, Method: PREINCUBATION",inactive; negative
same,mutagenic call,"Test System: AMES SALMONELLA TYPHIMURIUM, Strain/Indicator: TA100, Metabolic Activation: RAT LIVER S-9, AROCLOR 1254, Method: STANDARD PLATE",inactive; negative
same,mutagenic call,"Test System: AMES SALMONELLA TYPHIMURIUM, Strain/Indicator: TA100, Metabolic Activation: RAT, LIVER, S-9, AROCLOR 1254, Method: DIRECT PLATE",inactive; negative
same,mutagenic call,"Test System: AMES SALMONELLA TYPHIMURIUM, Strain/Indicator: TA100, Metabolic Activation: RAT, LIVER, S-9, AROCLOR 1254, Method: PREINCUBATION",inactive; negative
same,mutagenic call,"Test System: AMES SALMONELLA TYPHIMURIUM, Strain/Indicator: TA100, Metabolic Activation: S-9 (0.25 ML), Method: PREINCUBATION (20 MIN)",inactive; negative
same,mutagenic call,"Test System: AMES SALMONELLA TYPHIMURIUM, Strain/Indicator: TA100, Metabolic Activation: S-9 (0.5 ML), Method: PREINCUBATION (60 MIN)",inactive; negative
same,mutagenic call,"Test System: AMES SALMONELLA TYPHIMURIUM, Strain/Indicator: TA1535, Metabolic Activation: HAMSTER, LIVER, S-9, AROCLOR 1254, Method: STANDARD PLATE",inactive; negative
same,mutagenic call,"Test System: AMES SALMONELLA TYPHIMURIUM, Strain/Indicator: TA1535, Metabolic Activation: NONE, Method: DIRECT PLATE",inactive; negative
same,mutagenic call,"Test System: AMES SALMONELLA TYPHIMURIUM, Strain/Indicator: TA1535, Metabolic Activation: NONE, Method: PREINCUBATION",inactive; negative
same,mutagenic call,"Test System: AMES SALMONELLA TYPHIMURIUM, Strain/Indicator: TA1535, Metabolic Activation: RAT LIVER S-9, AROCLOR 1254, Method: PREINCUBATION",inactive; negative
same,mutagenic call,"Test System: AMES SALMONELLA TYPHIMURIUM, Strain/Indicator: TA1535, Metabolic Activation: RAT LIVER S-9, AROCLOR 1254, Method: STANDARD PLATE",inactive; negative
same,mutagenic call,"Test System: AMES SALMONELLA TYPHIMURIUM, Strain/Indicator: TA1535, Metabolic Activation: RAT, LIVER, S-9, AROCLOR 1254, Method: DIRECT PLATE",inactive; negative
same,mutagenic call,"Test System: AMES SALMONELLA TYPHIMURIUM, Strain/Indicator: TA1535, Metabolic Activation: RAT, LIVER, S-9, AROCLOR 1254, Method: PREINCUBATION",inactive; negative
same,mutagenic call,"Test System: AMES SALMONELLA TYPHIMURIUM, Strain/Indicator: TA1537, Metabolic Activation: HAMSTER, LIVER, S-9, AROCLOR 1254, Method: STANDARD PLATE",inactive; negative
same,mutagenic call,"Test System: AMES SALMONELLA TYPHIMURIUM, Strain/Indicator: TA1537, Metabolic Activation: NONE, Method: DIRECT PLATE",inactive; negative
same,mutagenic call,"Test System: AMES SALMONELLA TYPHIMURIUM, Strain/Indicator: TA1537, Metabolic Activation: NONE, Method: PREINCUBATION",inactive; negative
same,mutagenic call,"Test System: AMES SALMONELLA TYPHIMURIUM, Strain/Indicator: TA1537, Metabolic Activation: NONE, Method: STANDARD PLATE",inactive; negative
same,mutagenic call,"Test System: AMES SALMONELLA TYPHIMURIUM, Strain/Indicator: TA1537, Metabolic Activation: RAT LIVER S-9, AROCLOR 1254, Method: PREINCUBATION",inactive; negative
same,mutagenic call,"Test System: AMES SALMONELLA TYPHIMURIUM, Strain/Indicator: TA1537, Metabolic Activation: RAT LIVER S-9, AROCLOR 1254, Method: STANDARD PLATE",inactive; negative
same,mutagenic call,"Test System: AMES SALMONELLA TYPHIMURIUM, Strain/Indicator: TA1537, Metabolic Activation: RAT, LIVER, S-9, AROCLOR 1254, Method: DIRECT PLATE",inactive; negative
same,mutagenic call,"Test System: AMES SALMONELLA TYPHIMURIUM, Strain/Indicator: TA1537, Metabolic Activation: RAT, LIVER, S-9, AROCLOR 1254, Method: PREINCUBATION",inactive; negative
same,mutagenic call,"Test System: AMES SALMONELLA TYPHIMURIUM, Strain/Indicator: TA1537, Metabolic Activation: RAT, LIVER, S-9, AROCLOR 1254, Method: STANDARD PLATE",inactive; negative
same,mutagenic call,"Test System: AMES SALMONELLA TYPHIMURIUM, Strain/Indicator: TA1538, Metabolic Activation: HAMSTER, LIVER, S-9, AROCLOR 1254, Method: STANDARD PLATE",inactive; negative
same,mutagenic call,"Test System: AMES SALMONELLA TYPHIMURIUM, Strain/Indicator: TA1538, Metabolic Activation: NONE, Method: STANDARD PLATE",inactive; negative
same,mutagenic call,"Test System: AMES SALMONELLA TYPHIMURIUM, Strain/Indicator: TA1538, Metabolic Activation: RAT, LIVER, S-9, AROCLOR 1254, Method: STANDARD PLATE",inactive; negative
same,mutagenic call,"Test System: CHINESE HAMSTER V-79, Strain/Indicator: V-79/8-AZAGUANINE, Metabolic Activation: NONE",inactive; negative
same,mutagenic call,"Test System: CHINESE HAMSTER V-79, Strain/Indicator: V-79/8-AZAGUANINE, Metabolic Activation: RAT, LIVER, S-9, AROCLOR",inactive; negative
same,mutagenic call,"Test System: E. COLI, Strain/Indicator: WP2UVRA, Metabolic Activation: NONE, Method: PREINCUBATION",inactive; negative
same,mutagenic call,"Test System: E. COLI, Strain/Indicator: WP2UVRA, Metabolic Activation: NONE, Method: STANDARD PLATE",inactive; negative
same,mutagenic call,"Test System: E. COLI, Strain/Indicator: WP2UVRA, Metabolic Activation: RAT LIVER S-9, AROCLOR 1254, Method: PREINCUBATION",inactive; negative
same,mutagenic call,"Test System: E. COLI, Strain/Indicator: WP2UVRA, Metabolic Activation: RAT LIVER S-9, AROCLOR 1254, Method: STANDARD PLATE",inactive; negative
same,mutagenic call,"Test System: E. COLI, Strain/Indicator: WP2UVRA, Metabolic Activation: RAT, LIVER, S-9, AROCLOR 1254, Method: DIRECT PLATE",inactive; negative
same,mutagenic call,"Test System: E. COLI, Strain/Indicator: WP2UVRA, Metabolic Activation: RAT, LIVER, S-9, AROCLOR 1254, Method: PREINCUBATION",inactive; negative
same,mutagenic call,"Test System: E.COLI, Strain/Indicator: WP2UVRA, Metabolic Activation: NONE, Method: DIRECT PLATE",inactive; negative
same,mutagenic call,"Test System: MOUSE LYMPHOMA, Strain/Indicator: L5178Y (TK+/TK-), Metabolic Activation: RAT, LIVER, S-9, AROCLOR 1254, Method: SUSPENSION/PLATE",active; positive
same,mutagenic call,"Test System: MOUSE LYMPHOMA, Strain/Indicator: L5178Y(TK+/-), Metabolic Activation: NONE, Method: SUSPENSION/PLATE (4 H EXPOSURE)",active; positive
same,mutagenic call,"Test System: MOUSE LYMPHOMA, Strain/Indicator: L5178Y(TK+/-), Metabolic Activation: NONE, Method: SUSPENSION/PLATE (24 H EXPOSURE)",inactive; negative
same,mutagenic call,"Test System: MOUSE LYMPHOMA, Strain/Indicator: L5178Y(TK+/-), Metabolic Activation: RAT LIVER S-9, AROCLOR 1254, Method: SUSPENSION/PLATE",active; positive
